Measured values taken from PubChem BioAssay (NCI).
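Method: 48-hour compound exposure of cells in 96-well plates, five concentrations, linear interpolation of endpoints. Definition used: TGI = concentration required for complete inhibition of growth.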 Square brackets hold non-standard residues; d marks the D form. Peptide text beside a SMILES is read from it. Phe(4-NO2) = N[CH](Cc1ccc([N+](=O)[O-])cc1)C(=O)O

Legend:
Test in all cases: NCI anticancer screen, dose series, 48 h
[1] = tested on: SW-620 colon
[2] = tested on: COLO 205 colon
[3] = tested on: NCI/ADR-RES ovarian
[4] = tested on: HT29 colon
[5] = tested on: SNB-19 CNS
[6] = tested on: NCI-H522 lung
[7] = tested on: SK-MEL-2 melanoma
[8] = tested on: MDA-MB-231 breast
[9] = tested on: KM12 colon
[10] = tested on: M14 melanoma
[11] = tested on: OVCAR-8 ovarian
[12] = tested on: SR leukemia
[13] = tested on: MOLT-4 leukemia
[14] = tested on: IGROV1 ovarian
[15] = tested on: MDA-N
[16] = tested on: 786-0 renal
[17] = tested on: EKVX NSCLC
[18] = tested on: RPMI-8226 leukemia
[19] = tested on: OVCAR-4 ovarian
[20] = tested on: CCRF-CEM leukemia
[21] = tested on: MCF7 breast
[22] = tested on: SF-295 CNS
[23] = tested on: UACC-257 melanoma
[24] = tested on: ACHN renal
[25] = tested on: HCT-116 colon
[26] = tested on: LOX IMVI melanoma
[27] = tested on: U251 CNS
[28] = tested on: NCI-H23 lung
[29] = tested on: SK-MEL-28 melanoma
[30] = tested on: CAKI-1 renal
[31] = tested on: MALME-3M melanoma
[32] = tested on: NCI-H460 lung
[33] = tested on: MDA-MB-435
[34] = tested on: DU-145 prostate
[35] = tested on: HS 578T breast
[36] = tested on: OVCAR-5 ovarian
[37] = tested on: SK-OV-3 ovarian
[38] = tested on: SF-268 CNS
[39] = tested on: SK-MEL-5 melanoma
[40] = tested on: SN12C renal
[41] = tested on: RXF 393 renal
[42] = tested on: TK-10 renal
[43] = tested on: UO-31 renal
[44] = tested on: SNB-75 CNS
[45] = tested on: A549 NSCLC
[46] = tested on: OVCAR-3 ovarian
[47] = tested on: HCT-15 colon
[48] = tested on: NCI-H226 lung
[49] = tested on: UACC-62 melanoma
[50] = tested on: HOP-62 NSCLC
[51] = tested on: HOP-92 NSCLC
[52] = tested on: PC-3 prostate
[53] = tested on: K-562 leukemia
[54] = tested on: HL-60(TB) leukemia
[55] = tested on: SF-539 CNS
[56] = tested on: T-47D breast

COC(=O)CCC(NC(=O)C(CCC(=O)OC)NC(=O)C(CCC(=O)OC)NC(=O)C(CCC(=O)OC)NC(=O)C(CCC(=O)OC)NC(=O)C(Cc1ccc([N+](=O)[O-])cc1)NC(=O)C(CCC(=O)OC)NC(=O)C(CCC(=O)OC)NC(=O)C(CCC(=O)OC)NC(=O)C(CCC(=O)OC)NC(=O)C(CCC(=O)OC)NC(C)=O)C(N)=O (centres undefined) (Ac-E(OMe)E(OMe)E(OMe)E(OMe)E(OMe)[Phe(4-NO2)]E(OMe)E(OMe)E(OMe)E(OMe)E(OMe)-NH2; configuration not given here)
TGI [1]: > 100 µM | TGI [2]: > 100 µM | TGI [3]: > 100 µM | TGI [4]: > 100 µM | TGI [5]: > 100 µM | TGI [6]: > 100 µM | TGI [7]: > 100 µM | TGI [8]: > 100 µM | TGI [9]: > 100 µM | TGI [10]: > 100 µM | TGI [11]: > 100 µM | TGI [12]: > 100 µM | TGI [13]: > 100 µM | TGI [14]: > 100 µM | TGI [15]: > 100 µM | TGI [16]: > 100 µM | TGI [17]: > 100 µM | TGI [18]: > 100 µM | TGI [19]: > 100 µM | TGI [20]: > 100 µM | TGI [21]: > 100 µM | TGI [22]: > 100 µM | TGI [23]: > 100 µM | TGI [24]: > 100 µM | TGI [25]: > 100 µM | TGI [26]: > 100 µM | TGI [27]: > 100 µM | TGI [28]: > 100 µM | TGI [29]: > 100 µM | TGI [30]: > 100 µM | TGI [31]: > 100 µM | TGI [32]: > 100 µM | TGI [33]: > 100 µM | TGI [34]: > 100 µM | TGI [35]: > 100 µM | TGI [36]: > 100 µM | TGI [37]: > 100 µM | TGI [38]: > 100 µM | TGI [39]: > 100 µM | TGI [40]: > 100 µM | TGI [41]: > 100 µM | TGI [42]: > 100 µM | TGI [43]: > 100 µM | TGI [44]: > 100 µM | TGI [45]: > 100 µM

CC(C)(C)C(=O)CC(=O)C(F)(F)C(F)(F)C(F)(F)F.[Ag]
TGI [1]: 47 µM | TGI [2]: 57.9 µM | TGI [3]: 48.6 µM | TGI [46]: 27.7 µM | TGI [4]: 36 µM | TGI [5]: 43.9 µM | TGI [7]: 33.6 µM | TGI [8]: 30.1 µM | TGI [47]: 31.3 µM | TGI [9]: 50.8 µM | TGI [10]: 31.1 µM | TGI [48]: 60.2 µM | TGI [11]: 49.4 µM | TGI [49]: 32 µM | TGI [12]: 22.4 µM | TGI [13]: 44.8 µM | TGI [50]: 50.9 µM | TGI [14]: 26.5 µM | TGI [51]: 40.2 µM | TGI [15]: 29 µM | TGI [16]: 33 µM | TGI [17]: 55.3 µM | TGI [18]: 44.5 µM | TGI [19]: 30.5 µM | TGI [20]: 43.8 µM | TGI [22]: 39.2 µM | TGI [23]: 30.1 µM | TGI [52]: 26.8 µM | TGI [53]: 65.8 µM | TGI [24]: 28.7 µM | TGI [25]: 44.1 µM | TGI [54]: 40.8 µM | TGI [26]: 14.5 µM | TGI [27]: 52.8 µM | TGI [28]: 33.1 µM | TGI [29]: 28.3 µM | TGI [30]: 27.8 µM | TGI [31]: 45.4 µM | TGI [32]: 46.9 µM | TGI [33]: 33.5 µM | TGI [34]: > 100 µM | TGI [35]: 63.8 µM | TGI [36]: > 100 µM | TGI [55]: 57.6 µM | TGI [37]: 44.5 µM | TGI [56]: 55.2 µM | TGI [38]: 40.3 µM | TGI [39]: 21.3 µM | TGI [40]: 27.6 µM | TGI [41]: 32.4 µM | TGI [42]: 32.1 µM | TGI [43]: 60.4 µM | TGI [44]: 34.6 µM | TGI [45]: > 100 µM
